According to patent US20120142646A1, “Novel Compounds 621” (priority 2006, published 2012):
Counter-ions that a name gives are not always drawn.

The compounds below were run against T1, Adrenergic β2 (Homo sapiens, UniProt P07550) (assay: Adrenergic β2 mediated cAMP production in H292 cells (AlphaScreen cAMP detection)). Settings: Intrinsic Activity as a fraction relative to the maximum activity determined for formoterol.
T1 construct: Adherent H292 cells were removed from tissue culture flasks; endogenous in cells; host or cells: H292 cells
Assay type: cell-based
Design: key to β2 Int Act: fraction of formoterol maximum activity (formoterol = 1)
Summary of the method: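 H292 cells pre-treated 10 min with rolipram (300 μM final), then given agonist for 60 min at room temperature in HBSS/10 mM HEPES pH 7.4, 1.6% DMSO final. Lysate cAMP measured by AlphaScreen against a cAMP standard curve. Four-parameter fit gives pEC50; intrinsic activity relative to formoterol maximum.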

T1 sequence (P07550 whole entry): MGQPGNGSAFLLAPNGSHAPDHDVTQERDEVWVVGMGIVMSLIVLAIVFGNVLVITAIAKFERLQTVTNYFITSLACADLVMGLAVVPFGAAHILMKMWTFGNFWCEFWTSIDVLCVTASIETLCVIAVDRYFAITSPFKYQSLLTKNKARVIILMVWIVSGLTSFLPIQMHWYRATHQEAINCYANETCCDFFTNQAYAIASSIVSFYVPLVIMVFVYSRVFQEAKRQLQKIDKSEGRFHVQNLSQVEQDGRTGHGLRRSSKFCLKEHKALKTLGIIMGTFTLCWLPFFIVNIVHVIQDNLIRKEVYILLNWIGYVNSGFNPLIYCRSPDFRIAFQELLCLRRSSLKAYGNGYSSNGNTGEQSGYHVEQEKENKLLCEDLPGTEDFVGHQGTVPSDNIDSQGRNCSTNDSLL

β2 Int Act | Structure (SMILES)
0.85 | O=C(CCNCCc1ccc(F)c(F)c1)N(CCNCCc1ccc(O)c2[nH]c(=O)ccc12)C1CCCCC1 [Example 16, N-Cyclohexyl-3-(3,4-difluorophenethylamino)-N-(2-(2-(8-hydroxy-2-oxo-1,2-dihydroquinolin-5-yl)ethylamino)ethyl)propanamide bis(trifluoroacetate)]
0.87 | CC(C)[C@@H](C)N(CCNCCc1ccc(O)c2c1OCC(=O)N2)C(=O)CCNCCc1ccc(Cl)c(Cl)c1 [Example 59, (R)-3-(3,4-Dichlorophenethylamino)-N-(2-(2-(5-hydroxy-3-oxo-3,4-dihydro-2H-benzo[b][1,4]oxazin-8-yl)ethylamino)ethyl)-N-(3-methylbutan-2-yl)propanamide dihydrochloride]
0.99 | O=C1COc2c(CCNCCN(C(=O)CCNCCc3cc(F)cc(Cl)c3)C3CCCCCC3)ccc(O)c2N1 [Example 66, 3-(3-Chloro-5-fluorophenethylamino)-N-cycloheptyl-N-(2-(2-(5-hydroxy-3-oxo-3,4-dihydro-2H-benzo[b][1,4]oxazin-8-yl)ethylamino)ethyl)propanamide bis(trifluoroacetate)]
0.89 | O=C1COc2c(CCNCCN(C(=O)CCNCCc3cccc(Cl)c3)C3CCCCC3)ccc(O)c2N1 [Example 27, 3-(3-Chlorophenethylamino)-N-cyclohexyl-N-(2-(2-(5-hydroxy-3-oxo-3,4-dihydro-2H-benzo[b][1,4]oxazin-8-yl)ethylamino)ethyl)propanamide bis(trifluoroacetate)]
0.65 | CCOc1cccc(CCNCCC(=O)N(CCNCCc2ccc(O)c3[nH]c(=O)ccc23)C2CCCCCC2)c1 [Example 11, N-Cycloheptyl-3-(3-ethoxyphenethylamino)-N-(2-(2-(8-hydroxy-2-oxo-1,2-dihydroquinolin-5-yl)ethylamino)ethyl)propanamide bis(trifluoroacetate)]
0.92 | Cl.O=C(CCOCCc1cccc(F)c1)N(CCNCCc1ccc(O)c2[nH]c(=O)ccc12)C1CCCCC1 [Example 72, N-Cyclohexyl-3-(3-fluorophenethoxy)-N-(2-(2-(8-hydroxy-2-oxo-1,2-dihydroquinolin-5-yl)ethylamino)ethyl)propanamide hydrochloride]
0.83 | O=CNc1cc(CCNCCN(C(=O)CCNCCc2ccccc2)C2CCCCC2)ccc1O [Example 21, N-Cyclohexyl-N-(2-(3-formamido-4-hydroxyphenethylamino)ethyl)-3-(phenethylamino)propanamide]
0.91 | CC[C@@H](C)N(CCNCCc1ccc(O)c2c1OCC(=O)N2)C(=O)CCNCCc1ccc(Cl)c(Cl)c1 [Example 58, (R)—N-sec-Butyl-3-(3,4-dichlorophenethylamino)-N-(2-(2-(5-hydroxy-3-oxo-3,4-dihydro-2H-benzo[b][1,4]oxazin-8-yl)ethylamino)ethyl)propanamide dihydrochloride]
0.88 | O=C(CCNCCc1ccc(Cl)cc1)N(CCNCCc1ccc(O)c2[nH]c(=O)ccc12)C1CCCCC1 [Example 14, 3-(4-Chlorophenethylamino)-N-cyclohexyl-N-(2-(2-(8-hydroxy-2-oxo-1,2-dihydroquinolin-5-yl)ethylamino)ethyl)propanamide bis(trifluoroacetate)]
0.96 | CCCC[C@@H](C)N(CCNCCc1ccc(O)c2c1OCC(=O)N2)C(=O)CCNCCc1cc(F)ccc1F [Example 54, (R)-3-(2,5-Difluorophenethylamino)-N-(hexan-2-yl)-N-(2-(2-(5-hydroxy-3-oxo-3,4-dihydro-2H-benzo[b][1,4]oxazin-8-yl)ethylamino)ethyl)propanamide bis(trifluoroacetate)]
0.91 | CCCC[C@@H](C)N(CCNCCc1ccc(O)c2c1OCC(=O)N2)C(=O)CCNCCc1cc(C)ccc1F [Example 56, (R)-3-(2-Fluoro-5-methylphenethylamino)-N-(hexan-2-yl)-N-(2-(2-(5-hydroxy-3-oxo-3,4-dihydro-2H-benzo[b][1,4]oxazin-8-yl)ethylamino)ethyl)propanamide bis(trifluoroacetate)]
0.9 | O=C1COc2c(CCNCCN(C(=O)CCNCCc3cc(Cl)ccc3F)C3CCCCC3)ccc(O)c2N1 [Example 34, 3-(5-Chloro-2-fluorophenethylamino)-N-cyclohexyl-N-(2-(2-(5-hydroxy-3-oxo-3,4-dihydro-2H-benzo[b][1,4]oxazin-8-yl)ethylamino)ethyl)propanamide bis(trifluoroacetate)]
0.95 | CCCC[C@@H](C)N(CCNCCc1ccc(O)c2c1OCC(=O)N2)C(=O)CCNCCc1ccc(F)c(F)c1 [Example 52, (R)-3-(3,4-Difluorophenethylamino)-N-(hexan-2-yl)-N-(2-(2-(5-hydroxy-3-oxo-3,4-dihydro-2H-benzo[b][1,4]oxazin-8-yl)ethylamino)ethyl)propanamide bis(trifluoroacetate)]
0.87 | O=C1COc2c(CCNCCN(C(=O)CCNCCc3cc(F)cc(F)c3)C3CCCCC3)ccc(O)c2N1 [Example 35, N-Cyclohexyl-3-(3,5-difluorophenethylamino)-N-(2-(2-(5-hydroxy-3-oxo-3,4-dihydro-2H-benzo[b][1,4]oxazin-8-yl)ethylamino)ethyl)propanamide bis(trifluoroacetate)]
0.97 | O=C1COc2c(CCNCCN(C(=O)CCOCCc3cccc(Cl)c3)C3CCCCC3)ccc(O)c2N1 [Example 77, 3-(3-Chlorophenethoxy)-N-cyclohexyl-N-(2-(2-(5-hydroxy-3-oxo-3,4-dihydro-2H-benzo[b][1,4]oxazin-8-yl)ethylamino)ethyl)propanamide trifluoroacetate]
0.9 | CCCC[C@@H](C)N(CCNCCc1ccc(O)c2c1OCC(=O)N2)C(=O)CCNCCc1ccccc1 [Example 25, (R)—N-(Hexan-2-yl)-N-(2-(2-(5-hydroxy-3-oxo-3,4-dihydro-2H-benzo[b][1,4]oxazin-8-yl)ethylamino)ethyl)-3-(phenethylamino)propanamide bis(trifluoroacetate)]
0.97 | O=C1COc2c(CCNCCN(C(=O)CCOCCc3ccccc3)C3CCCCC3)ccc(O)c2N1 [Example 70, N-Cyclohexyl-N-(2-(2-(5-hydroxy-3-oxo-3,4-dihydro-2H-benzo[b][1,4]oxazin-8-yl)ethylamino)ethyl)-3-phenethoxypropanamide trifluoroacetate]
0.89 | O=C1COc2c(CCNCCN(C(=O)CCNCCc3ccc(F)c(Cl)c3)C3CCCCC3)ccc(O)c2N1 [Example 37, 3-(3-Chloro-4-fluorophenethylamino)-N-cyclohexyl-N-(2-(2-(5-hydroxy-3-oxo-3,4-dihydro-2H-benzo[b][1,4]oxazin-8-yl)ethylamino)ethyl)propanamide bis(trifluoroacetate)]
0.87 | O=C1COc2c(CCNCCN(C(=O)CCNCCc3ccc(F)c(F)c3)C3CCCCCC3)ccc(O)c2N1 [Example 67, N-Cycloheptyl-3-(3,4-difluorophenethylamino)-N-(2-(2-(5-hydroxy-3-oxo-3,4-dihydro-2H-benzo[b][1,4]oxazin-8-yl)ethylamino)ethyl)propanamide bis(trifluoroacetate)]
0.89 | CCCC[C@@H](C)N(CCNCCc1ccc(O)c2c1OCC(=O)N2)C(=O)CCNCCc1cccc(Cl)c1 [Example 44, (R)-3-(3-Chlorophenethylamino)-N-(hexan-2-yl)-N-(2-(2-(5-hydroxy-3-oxo-3,4-dihydro-2H-benzo[b][1,4]oxazin-8-yl)ethylamino)ethyl)propanamide bis(trifluoroacetate)]
0.94 | Cl.O=C(CCOCCc1ccccc1F)N(CCNCCc1ccc(O)c2[nH]c(=O)ccc12)C1CCCCC1 [Example 73, N-Cyclohexyl-3-(2-fluorophenethoxy)-N-(2-(2-(8-hydroxy-2-oxo-1,2-dihydroquinolin-5-yl)ethylamino)ethyl)propanamide hydrochloride]
0.92 | CC[C@@H](C)N(CCNCCc1ccc(O)c2[nH]c(=O)ccc12)C(=O)CCOCCc1ccccc1.Cl [Example 79, (R)—N-sec-Butyl-N-(2-(2-(8-hydroxy-2-oxo-1,2-dihydroquinolin-5-yl)ethylamino)ethyl)-3-phenethoxypropanamide hydrochloride]
0.9 | Cc1ccc(F)c(CCNCCC(=O)N(CCNCCc2ccc(O)c3c2OCC(=O)N3)C2CCCCC2)c1 [Example 33, N-Cyclohexyl-3-(2-fluoro-5-methylphenethylamino)-N-(2-(2-(5-hydroxy-3-oxo-3,4-dihydro-2H-benzo[b][1,4]oxazin-8-yl)ethylamino)ethyl)propanamide bis(trifluoroacetate)]
0.79 | O=C1COc2c(CCNCCN(C(=O)CCNCCc3ccc(Cl)cc3)C3CCCCCC3)ccc(O)c2N1 [Example 63, 3-(4-Chlorophenethylamino)-N-cycloheptyl-N-(2-(2-(5-hydroxy-3-oxo-3,4-dihydro-2H-benzo[b][1,4]oxazin-8-yl)ethylamino)ethyl)propanamide bis(trifluoroacetate)]
0.91 | C[C@H](CNCCC(=O)N(CCNCCc1ccc(O)c2[nH]c(=O)ccc12)C1CCCCCC1)c1ccccc1 [Example 9, (S)—N-Cycloheptyl-N-(2-(2-(8-hydroxy-2-oxo-1,2-dihydroquinolin-5-yl)ethylamino)ethyl)-3-(2-phenylpropylamino)propanamide bis(trifluoroacetate)]
